From US6011000A, “Compositions for the treatment of blood disorders” (priority 1995, dated 2000)

How the values were obtained:
anemic baboon = assay: In vivo reticulocyte proliferation, globin expression and blood counts in anemic (phlebotomized) baboons; conditions: for Fetal reticulocytes: baseline 4%
Experimental: Experiments were performed to determine if administration of the chemical compositions could induce fetal globin gene expression in an in vivo model similar to humans (S. P. Perrine et al., Brit. J. Haematol. 88:555-61, 1994). Briefly, chemicals were prepared as sterile pharmaceutical solutions in pH adjusted sterile water. A variety of chemical compositions were administered sequentially to some baboons. After administration of one compound, a wash-out period with no compound administration was maintained until reticulocytes returned to base line prior to administration of the next compound. This was done, at least partly, to compare the magnitude of response which occurred within the same individual animal to different compounds.
Briefly, juvenile female baboons (2 years old) were catheterized with arterial and venous catheters and phlebotomized gradually every day to maintain a moderate anemia of 7.0 to 7.5 grams hemoglobin/dl. Fetal reticulocytes, the newly produced red blood cells containing fetal globin, were assayed using a monoclonal antibody against fetal globin (HbF) as described by G. Dover et al. (Blood 67:735-38, 1986). Briefly, blood was stained with two antibodies, one specific for reticulocytes and another against fetal globin protein. The amount of antibody bound cells was determined by FACS analysis. Globin chain synthesis was assayed as described by J. B. Clegg et al. (J. Mol. Biol. 19:91-108, 1966). Briefly, reticulocytes were radio-labeled with ^3 H-leucine which was incorporated in equal proportions into actively synthesized globin chains. After incubation in leucine-free media, cells were washed, and globin proteins were separated and purified by column chromatography. Radioactivity incorporated into each peak is compared and the ratios of gamma to gamma plus beta globin calculated. Each animal served as its own control with baseline monitoring assays performed for 4-6 weeks before any drug was administered. Phlebotomy was continued daily, so that peripheral HbF levels in the animals were not considered to be accurate over the short treatment time-frames and were not monitored. Safety monitoring was performed by frequent physical examinations, quantitation of food eaten, activity and frequent chemistry and hematology monitoring. Complete blood counts were assayed before, during and after treatment. Results presented were not adjusted to account for the daily phlebotomy.

[1] = tested on: fetal globin synthesis in erythroid progenitors; conditions: cited from earlier work
[2] = tested on: gamma globin (erythroblasts of sickle cell anemia patients); assay: Induction of fetal globin in erythroblasts by steel factor; format: cell-based, human; conditions: 100 ng/ml
Experimental: Peripheral blood was obtained from patients with sickle cell anemia. Mononuclear cells were isolated on Ficoll-Hypaque gradients. One culture was treated with 100 ng/ml steel factor for 13 days and compared with an untreated control. […] A second culture was incubated overnight with an identical dose of steel factor plus ^3 H-leucine. Amounts of labeled globin proteins synthesized in untreated (FIG. 5A) and steel factor treated (FIG. 5B) cells were determined by autoradiography and quantitated (scanned) by laser densitometry.

histone acetylation = conditions: cited from earlier work
Friend leukemia cells = conditions: cited from earlier work
[3] = tested on: fetal globin expression in K562 human erythroleukemia cells; conditions: cited from earlier work
[4] = tested on: human fetal (γ) globin gene; conditions: cited from earlier work
fetal globin = conditions: pharmacological doses, phenylhydrazine-anemic chickens; cited from earlier work
[5] = 25 and 100 μg/kg s.c., undetectable before treatment

## steel factor: hematopoietic factor, steel factor, also referred to as kit ligand, mast cell growth factor and stem cell factor
Anemic baboon; 25 μg/kg s.c. daily, 4 days (FIG. 10)
  Fetal reticulocytes: 15%
Anemic baboon; 100 μg/kg s.c., four days, after wash-out
  Fetal reticulocytes: 12%
Anemic baboon; 25 and 100 μg/kg s.c.
  rise in numbers of newly-formed blood cells producing fetal globin: 300-500%
  total increase of gamma globin expression in the bone marrow: 9 fold
Anemic baboon; [5]
  fetal globin chain protein: about 3 % of total non-alpha globin
  rise in fetal globin chain protein: 3 fold
[1]
  fetal globin synthesis: capable of influencing fetal globin synthesis in erythroid progenitors
[2]; 13 days, vs untreated control
  mean increase in gamma globin expression: 16.1%
[2]; 13 days, from 14%
  gamma globin expression in BFU-e cells: 23.3%
[2]; overnight
  globin proteins included in the increase: included both G-γ and A-γ globin proteins
[2]; overnight + 3H-leucine, untreated 17.6%
  Gamma globin expression: 43.3%

## CCCC(=O)O [butyric acid]
Histone acetylation
  level of histone acetylation: may act by increasing the level of histone acetylation
Friend leukemia cells
  hemoglobin synthesis: induced hemoglobin synthesis
[3]
  increase of fetal globin expression: much less of an effect
[4]
  transcription of the human fetal (γ) globin gene: accurately and specifically stimulated transcription of the human fetal (γ) globin gene
Fetal globin
  expression of fetal globin: greatly increased expression of fetal globin
